From ChEMBL document CHEMBL1151401, “Plant anticancer agents. XII. Isolation and structure elucidation of new cytotoxic quinones from Tabebuia cassinoides” (1982)
In brackets after ≈: the same amount, converted by molar mass. Activity calls are given as the source filed them. The calls are words filed in the database; no cut-off is given here.

Legend:
[1] = test system: KB; test: Cytotoxicity against human KB cells; type: functional; settings: read-out: ED50 (the source's name)
[2] = test system: P388; test: In vivo cytotoxicity against mouse P388 cells at upto 35 mg/kg; type: functional, organism-based; set-up: dose 35 mg/kg

| SMILES | EC50 [1] | Activity [2] |
| --- | --- | --- |
| CC(C)=CCC1=C(O)C(=O)c2ccccc2C1=O [LAPACHOL] | 4.4 µg/mL (≈ 18.2 µM) | – |
| CC(O)c1cc2c(o1)C(=O)c1ccccc1C2=O (stereo not given) | 2 µg/mL (≈ 8.26 µM) | – |
| CC(O)c1cc2c(o1)C(=O)c1c(O)cccc1C2=O (stereo not given) | 1 µg/mL (≈ 3.87 µM) | – |
| CC(=O)c1cc2c(o1)C(=O)c1ccccc1C2=O [NAPABUCASIN] | 1 µg/mL (≈ 4.16 µM) | inactive |
